Measurements from article PMC10300102, “In vivo inhibition of nuclear ACE2 translocation protects against SARS-CoV-2 replication and lung damage through epigenetic imprinting” (Nature Communications, 2023).
“And” between values parts separate entries of the source, which are not always exact repeats. Equal entries are not always repeated. Where a SMILES comes first, the peptide text is derived from it. The star is where a group is joined. Myristoyl = CCCCCCCCCCCCCC(=O)*

Experiments:
[1] = system: importin-α ΔIBB protein / ACE2 FITC peptide (ACE2-IMPα complex); assay: Fluorescence polarization competition assay; type: binding; settings: Fig. 1b, c: EMSA, microscale thermophoresis and fluorescence polarization
Protocol: Fluorescence polarization assays were performed using the CLARIOstar Plus plate reader (BMG Labtech, Ortenberg, Germany) with the fluorescein-Ahx-tagged ACE2 peptide sequence ^766[…]^779 manufactured by GeneScript Biotech (Piscataway, NJ), NACE2i peptide sequence MYR-[…]-OH manufactured by Mimitopes Pty Ltd (Melbourne, Australia), and recombinantly expressed importin-α ΔIBB protein. Each assay contained 50 nM ACE2 FITC, 10 μM importin-α ΔIBB protein, and two-fold serially-diluted NACE2i (starting concentration 400 μM) across 10 wells in a total volume of 200 μL. Fluorescence polarization readings were taken using 96-well black Fluotrac microplates (Greiner Bio-One, Kremsmünster, Austria). Assays were repeated in triplicate and contained a negative control (no inhibitor) and blank (no importin-α ΔIBB protein). Triplicate data were normalized and fitted to a single inhibition curve using GraphPad Prism (GraphPad Software, La Jolla, CA).

[2] = In vitro monkey plasma assay; type: in vitro ADME, cynomolgus monkey; settings: for Concentration: single replicates
Protocol: Briefly, pooled frozen plasma was thawed at 37 °C prior to experiments. Plasma was centrifuged at 3720 x g for 5 min and any clots were removed. All blanks and working solutions were aliquoted on an Apricot automation workstation (2 μL/well of working solution (100 μM) with 98 μL plasma for NACE2i peptide (CP300638) and control compounds somatostatin acetate and procaine hydrochloride). All reaction plates containing mixtures of NACE2i, somatostatin acetate, and procaine hydrochloride and plasma were incubated at 37 °C in a water bath for 0, 15, 30, 60, 120, 240, and 360 min. Incubation was stopped with 4% H3PO4 and stop solution (200 ng/mL tolbutamide and 200 ng/mL labetalol in MeOH) to precipitate protein. Each plate was sealed and shaken for 20 min and then centrifuged at 3720 x g at 4 °C for 20 min. After centrifugation, the Apricot workstation was used to transfer 150 μL supernatant to each bioanalysis plate, which was then sealed and shaken for 10 min prior to LC-MS/MS analysis as per the manufacturer’s guidelines. LC: Shimadzu LC 30-AD, MS: QTRAP 6500 + , Autosampler: CTC PAL.

[3] = system: SARS-CoV-2-induced lung pathology; design: species or system golden Syrian hamsters; settings: hamster, in vivo
PBMCs = type: cell-based, human; settings: 10 µM 24 h

In the case of `CCCCCCCCCCCCCC(=O)N[C@H](C(=O)NCC(=O)N[C@H](C(=O)N[C@@H](CCCNC(=N)N)C(=O)N[C@@H](CC(=O)O)C(=O)N[C@@H](CCCNC(=N)N)C(=O)N[C@@H](CCCCN)C(=O)N[C@@H](CCCCN)C(=O)N[C@@H](CCCCN)C(=O)N[C@@H](CC(N)=O)C(=O)N[C@@H](CCCCN)C(=O)N[C@@H](C)C(=O)N[C@@H](CCCNC(=N)N)C(=O)N[C@@H](CO)C(=O)O)[C@@H](C)CC)[C@@H](C)O` [NACE2i] (Myristoyl-TGIRDRKKKNKARS-OH), the “inhibition of the ACE2-IMPα complex in vitro” value [1] is reported as “directly inhibiting the ACE2-IMPα complex”, the Concentration ([2]; cynomolgus monkey plasma, time 0 min) is reported as 2270 nM and 2330 nM and the Concentration ([2]; cynomolgus monkey plasma, time 15 min) is reported as 1960 nM and 1620 nM. The Concentration ([2]; cynomolgus monkey plasma, time 30 min) was 2060 nM and 2030 nM, the Concentration ([2]; cynomolgus monkey plasma, time 60 min) was 1840 nM and 1540 nM and the Concentration ([2]; cynomolgus monkey plasma, time 120 min) was 1740 nM and 1890 nM. For the same compound, the Concentration ([2]; cynomolgus monkey plasma, time 240 min) was 1980 nM and 1920 nM, the “% Remaining” value ([2]; cynomolgus monkey plasma, time 360 min, n=2) was 76.7741% and the Concentration ([2]; cynomolgus monkey plasma, time 360 min) was 1740 nM and 1850 nM. For the same compound, the remaining at 0.25 h, 2 µM ([2]; monkey, plasma (pooled, frozen), cynomolgus monkey plasma, time 15 min, n=2) was 86.2%, the remaining at 0.5 h, 2 µM ([2]; monkey, plasma (pooled, frozen), cynomolgus monkey plasma, time 30 min, n=2) was 90.6% and the remaining at 1 h, 2 µM ([2]; monkey, plasma (pooled, frozen), cynomolgus monkey plasma, time 60 min, n=2) was 81.1%. For the same compound, the remaining at 2 h, 2 µM ([2]; monkey, plasma (pooled, frozen), cynomolgus monkey plasma, time 120 min, n=2) was 76.6%, the remaining at 4 h, 2 µM ([2]; monkey, plasma (pooled, frozen), cynomolgus monkey plasma, time 240 min, n=2) was 87.4% and the half-life at 2 µM ([2]; pooled male cynomolgus monkey plasma, 2 µL of 100 µM working solution + 98 µL plasma, 37 °C, 0-360 min, LC-MS/MS, read-out: T1/2 in plasma) was 14.5 h. The “% remaining in plasma after 360 min incubation” value ([2]; pooled male cynomolgus monkey plasma, 2 µL of 100 µM working solution + 98 µL plasma, 37 °C, 360 min, LC-MS/MS) was 78%, the lung histopathological changes [3] was “minimal alveolar, bronchiolar, or vascular changes” and the “mean cumulative histopathological scores versus vehicle” value [3] was “substantially lower”. For the same compound, the Bronchitis/bronchiolitis ([3]; ip) was 0, the Interstital inflammation ([3]; ip) was 0 and the Vasculitis ([3]; ip) was 0. For the same compound, the IL-6 expression (PBMCs) was “reduced” and the perforin expression (PBMCs) was “increased”.
